Experimental data as given in ChEMBL document CHEMBL3856232, “Synthesis and biological evaluation of novel 2-imino-4-thiazolidinone derivatives as potent anti-cancer agents” (Bioorg Med Chem Lett, 2016).
Calls of active or inactive are those of the source. No cut-off for these calls is given here.

Key:
[1] = (§1) Cytotoxicity against human A549 cells assessed as reduction in cell viability after 48 hrs by MTT assay; assay type: functional, cell-based; conditions: A549, 48 h
A549 = assay: as §1; assay type: functional, cell-based
B16-F10 [2] = assay: (§2) Cytotoxicity against mouse B16F10 cells assessed as reduction in cell viability after 48 hrs by MTT assay; assay type: functional, cell-based
B16-F10 [3] = assay: Induction of intracellular superoxide radical accumulation in mouse B16F10 cells at 50 uM by dihydroethidium staining based fluorescence microscopic analysis; assay type: functional, cell-based
B16-F10 [4] = assay: Induction of apoptosis in mouse B16F10 cells assessed as DNA damage at 50 uM after 24 hrs by propidium iodide/Hoechst staining based FACS analysis; assay type: functional, cell-based
B16-F10 [5] = assay: Induction of intracellular hydrogen peroxide accumulation in mouse B16F10 cells at 50 uM after 24 hrs by DCF-DA staining based fluorescence microscopic analysis; assay type: functional, cell-based
[6] = Cell cycle arrest in mouse B16F10 cells assessed as accumulation in G2/M phase at 50 uM after 24 hrs by propidium iodide staining based FACS analysis; assay type: functional; conditions: B16-F10
[7] = Cytotoxicity against CHO cells assessed as reduction in cell viability up to 10 uM after 48 hrs by MTT assay; assay type: toxicity, cell-based, Cricetulus griseus; conditions: chinese hamster
[8] = Cytotoxicity against CHO cells assessed as reduction in cell viability at 50 to 100 uM after 48 hrs by MTT assay; assay type: toxicity, cell-based, Cricetulus griseus; conditions: chinese hamster
[9] = as §2; assay type: functional, cell-based; conditions: B16-F10, 48 h
[10] = Cytotoxicity against CHO cells assessed as reduction in cell viability up to 100 uM after 48 hrs by MTT assay; assay type: toxicity, cell-based, Cricetulus griseus; conditions: chinese hamster
[11] = Cell cycle arrest in mouse B16F10 cells assessed as decrease in G0/G1 phase at 50 uM after 24 hrs by propidium iodide staining based FACS analysis; assay type: functional; conditions: B16-F10
[12] = Cell cycle arrest in mouse B16F10 cells assessed as accumulation in sub G0/G1 phase at 50 uM after 24 hrs by propidium iodide staining based FACS analysis; assay type: functional; conditions: B16-F10
PANC-1 = assay: Cytotoxicity against human PANC1 cells assessed as reduction in cell viability up to 100 uM after 48 hrs by MTT assay; assay type: functional, cell-based
[13] = Cytotoxicity against mouse B16F10 cells assessed as inhibition of cell viability at 4 uM after 48 hrs by MTT assay relative to control; assay type: functional; conditions: B16-F10, 48 h
[14] = Cytotoxicity against human A549 cells assessed as inhibition of cell viability at 4 uM after 48 hrs by MTT assay relative to control; assay type: functional; conditions: A549, 48 h

| Structure (SMILES) | Activity (A549) | Activity (B16-F10 [2]) | also measured |
| --- | --- | --- | --- |
| O=C(CN1CCN(C(=O)c2ccccc2)CC1)Nc1ccc(/N=C2\SCC(=O)N2Cc2cccs2)cc1 |  |  | IC50 [1]: 10 µM |
| O=C(CN1CCN(c2ccccn2)CC1)Nc1ccc(/N=C2\SCC(=O)N2Cc2cccs2)cc1 | Active | Active |  |
| CN(C)CC(=O)Nc1ccc(/N=C2\SCC(=O)N2Cc2ccco2)cc1 | Active | Active |  |
| CCCNCC(=O)Nc1ccc(/N=C2\SCC(=O)N2Cc2cccs2)cc1 |  |  | Activity (B16-F10 [3]): Active; Activity (B16-F10 [4]): Active; Activity (B16-F10 [5]): Active; Activity [6]: Active; Activity [7]: Non-Toxic; Activity [8]: Toxic; IC50 [9]: 3.4 µM |
| CCN(CC)CC(=O)Nc1ccc(/N=C2\SCC(=O)N2Cc2ccco2)cc1 | Active | Active |  |
| CN1CCN(CC(=O)Nc2ccc(/N=C3\SCC(=O)N3Cc3cccs3)cc2)CC1 | Active | Active |  |
| COc1ccccc1N1CCN(CC(=O)Nc2ccc(/N=C3\SCC(=O)N3Cc3ccco3)cc2)CC1 | Active | Active |  |
| O=C(CN1CCCCC1)Nc1ccc(/N=C2\SCC(=O)N2Cc2ccco2)cc1 | Active | Active |  |
| O=C(CN1CCSCC1)Nc1ccc(/N=C2\SCC(=O)N2Cc2ccco2)cc1 | Active | Active |  |
| O=C(CN1CCCC1)Nc1ccc(/N=C2\SCC(=O)N2Cc2ccco2)cc1 | Active | Active |  |
| O=C(CN1CCN(c2ccc(F)cc2)CC1)Nc1ccc(/N=C2\SCC(=O)N2Cc2cccs2)cc1 | Active | Active |  |
| O=C(CN1CCOCC1)Nc1ccc(/N=C2\SCC(=O)N2Cc2cccs2)cc1 |  |  | IC50 [1]: 12.6 µM |
| O=C(CN1CCCC1)Nc1ccc(/N=C2\SCC(=O)N2Cc2cccs2)cc1 |  |  | Activity (B16-F10 [4]): Active; Activity [10]: Non-Toxic; Activity [11]: Active; Activity [12]: Active; IC50 [9]: 5.4 µM |
| CCNCC(=O)Nc1ccc(/N=C2\SCC(=O)N2Cc2cccs2)cc1 |  |  | Activity (PANC-1): Active; IC50 [1]: 12.6 µM; IC50 [9]: 11.6 µM |
| CCN(CC)CC(=O)Nc1ccc(/N=C2\SCC(=O)N2Cc2cccs2)cc1 |  |  | Activity (B16-F10 [4]): Active; Activity [10]: Non-Toxic; Activity [11]: Active; Activity [12]: Active; IC50 [1]: 12.5 µM; IC50 [9]: 7 µM |
| CN(C)CC(=O)Nc1ccc(/N=C2\SCC(=O)N2Cc2cccs2)cc1 | Active | Active |  |
| N#Cc1ccccc1N1CCN(CC(=O)Nc2ccc(/N=C3\SCC(=O)N3Cc3ccco3)cc2)CC1 | Active | Active |  |
| O=C(CN1CCSCC1)Nc1ccc(/N=C2\SCC(=O)N2Cc2cccs2)cc1 |  |  | IC50 [1]: 10 µM |
| O=C(CN1CCOCC1)Nc1ccc(/N=C2\SCC(=O)N2Cc2ccco2)cc1 | Active | Active |  |
| O=C(CN1CCCCC1)Nc1ccc(/N=C2\SCC(=O)N2Cc2cccs2)cc1 | Active | Active |  |
| COc1cccc2c1C(=O)c1c(O)c3c(c(O)c1C2=O)C[C@@](O)(C(=O)CO)C[C@@H]3O[C@H]1C[C@H](N)[C@H](O)[C@H](C)O1 [DOXORUBICIN] |  |  | inhibition at 4 µM [13]: 40.9%; inhibition at 4 µM [14]: 28% |
